Experiments:
human 17βHSD type 1 = biological target: T1, human 17βHSD type 1 (Homo sapiens, UniProt P14061); assay: Inhibition of recombinant 17βHSD type 1, tritium-labeled substrate conversion; assay type: biochemical; conditions: for inhibition at 0.1 µM: 0.1 μmol · l^−1 test substance; for inhibition at 0.1 µM / inhibition at 1 µM: read-out: % of inhibition of human 17βHSD1; for inhibition at 1 µM: 1 μmol · l^−1 test substance
T1 construct: made in house; expressing system suspended in buffer, not purified
T1 sequence (P14061 1-328): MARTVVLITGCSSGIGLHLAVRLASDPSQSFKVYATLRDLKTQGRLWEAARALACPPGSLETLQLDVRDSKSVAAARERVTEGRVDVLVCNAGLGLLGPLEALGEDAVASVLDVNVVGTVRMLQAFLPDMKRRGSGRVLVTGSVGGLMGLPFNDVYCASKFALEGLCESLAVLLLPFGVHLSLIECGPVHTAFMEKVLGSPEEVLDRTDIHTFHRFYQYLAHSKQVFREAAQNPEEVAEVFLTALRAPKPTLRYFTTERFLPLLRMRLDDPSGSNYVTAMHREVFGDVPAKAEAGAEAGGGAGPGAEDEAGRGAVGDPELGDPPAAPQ
Procedure: (§1) The inhibitory activity of the test substances was determined for individual isoenzymes from the 17βHSD family, specifically these were the types 1, 2, 3, 4, 5 and 7. Escherichia coli and mammalian cells expression systems were used for recombinant expression of individual isozymes of human 17βHSD. Only in the case of 17HSD5 the enzyme was partially purified and supernatant obtained by centrifugation of the bacterial lysate was used for testing. Systems expressing specific 17βHSD type were suspended in a reaction buffer and incubated with tritium-labeled substrates and respective cofactors at 37° C. in two parallel tests: the control arrangement (DMSO without the inhibitor) and the test arrangement (DMSO with the inhibitor). DMSO serves as a negative control in this case. After 20-30% of the substrate was converted by the activity of the enzyme to the product in a control test, both tests were terminated. Substrate and product from the test arrangement were isolated by SPE (solid phase extraction), and then separated by reverse phase HPLC. Substrate conversion was determined by integration of the signals of the substrate and product, and was expressed in %. For the purposes of the subsequent calculation of enzyme inhibition, the conversion of the control test was designated as 0% inhibition. All tests were performed in triplicates. IC50 values were subsequently determined by a standard method using the “One Ligand Binding” model of SigmaPlot kinetics module (Schustera et. al. J. Ster. Biochem. Mol. Biol. 2011, 125, 148; Möller et. al. Biioorg. Med. Chem. Lett. 2009, 19, 6740; Möller et. al. PLoS One, 2010, 5, 6, e10969).

human 17βHSD type 5 = biological target: T2, human 17βHSD type 5 (Homo sapiens, UniProt P42330); assay: Inhibition of recombinant 17βHSD type 5, tritium-labeled substrate conversion; assay type: biochemical; conditions: 1 μmol · l^−1 test substance
T2 construct: made in house; host or cells: bacteria (Escherichia coli); supernatant of the lysate
T2 sequence (P42330 1-323): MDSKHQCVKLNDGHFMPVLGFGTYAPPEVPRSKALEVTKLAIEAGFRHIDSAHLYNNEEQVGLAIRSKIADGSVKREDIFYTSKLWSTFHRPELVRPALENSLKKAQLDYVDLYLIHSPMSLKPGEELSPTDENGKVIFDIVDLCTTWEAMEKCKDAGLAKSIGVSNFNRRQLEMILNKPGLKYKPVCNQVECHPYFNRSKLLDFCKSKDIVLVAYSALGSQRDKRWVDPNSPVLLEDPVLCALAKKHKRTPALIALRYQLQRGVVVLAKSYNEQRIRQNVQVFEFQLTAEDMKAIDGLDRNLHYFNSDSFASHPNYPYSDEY
Procedure: as §1

[1] = biological target: T3, estrogen receptor α (ERα) (Homo sapiens, UniProt P03372); assay: ERα luciferase reporter assay in U2OS cells; assay type: cell-based; conditions: for Emax: U2OS, read-out: efficacy of ERα activation, % of the maximal effect produced by E2; for EC50: agonist mode, U2OS reporter, 24 h; for IC50: antagonist mode, 1 nmol·l^−1 E2
T3 construct: expressed in transfected cells
T3 sequence (P03372 1-595): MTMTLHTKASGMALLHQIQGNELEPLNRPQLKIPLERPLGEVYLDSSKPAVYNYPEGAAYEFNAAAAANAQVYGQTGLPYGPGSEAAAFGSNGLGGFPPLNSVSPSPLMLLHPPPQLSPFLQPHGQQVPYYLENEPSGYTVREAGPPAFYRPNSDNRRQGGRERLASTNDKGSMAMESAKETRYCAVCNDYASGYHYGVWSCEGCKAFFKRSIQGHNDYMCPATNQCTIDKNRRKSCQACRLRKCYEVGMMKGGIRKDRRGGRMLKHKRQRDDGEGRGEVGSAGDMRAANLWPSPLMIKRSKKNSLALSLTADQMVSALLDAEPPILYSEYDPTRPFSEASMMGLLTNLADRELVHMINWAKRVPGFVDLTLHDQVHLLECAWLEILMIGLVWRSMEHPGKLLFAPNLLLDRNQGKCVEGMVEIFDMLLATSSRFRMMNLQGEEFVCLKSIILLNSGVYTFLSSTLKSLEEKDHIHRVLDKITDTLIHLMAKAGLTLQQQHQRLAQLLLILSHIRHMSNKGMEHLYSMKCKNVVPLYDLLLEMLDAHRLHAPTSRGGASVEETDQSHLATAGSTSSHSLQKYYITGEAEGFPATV

PC3 = assay: 7 day proliferation assay, PC3; assay type: cell-based; conditions: 1 μmol·l^−1, 7 days
Procedure: In this study, T47D cells were propagated in RPMI 1640 medium supplemented with 10% fetal bovine serum, 2 mmol^·l^−1 glutaMAX (Thermo Fisher Scientific, MA, USA), and penicillin/streptomycin (Thermo Fisher Scientific, Waltham, USA) and incubated in a 5% CO2-humidified atmosphere at 37° C. to the amount needed for the experiment. Two days prior to testing of compounds, growth medium was changed to medium without phenol red, supplemented with 2 mmol^·l^−1 Glutamax and 4% FBS depleted of lipophilic components (including the endogenous estrogenic substances) (Hyclone, GE Healthcare Life Sciences, USA). Two days after the medium replacement, the cells were harvested, counted and resuspended in a medium. Cells were dispensed with liquid dispenser Multidrop (Thermo Fisher Scientific, Waltham, USA), to the cell culture treated, 12-well plates (Corning Inc., NY, USA) at 100 000 cells/well in 1 mL of total media volume. […] After 7 days of cell cultivation with compounds, cells were harvested and counted. […]
Compounds 9 and 12 were tested in the proliferation assay with cell lines derived from the triple negative breast cancer (MDA-MB-231), AR-negative prostate cancer (PC3, DU145) and ovarian cancer (SK-OV-3, CaoV-3). […] At the end of the treatment, cells were harvested and counted. […]

Compound | inhibition at 0.1 µM (human 17βHSD type 1) [%] | inhibition at 1 µM (human 17βHSD type 1) [%] | % of inhibition of human 17βHSD5 (human 17βHSD type 5) [%] | Emax [1] [%] | EC50 [1] [µM] | IC50 [1] [µM] | ER antagonism in words ([1]; testing range 10 μmol·l^−1 to 1 nmol·l^−1) | % of survived cells compared to untreated samples, PC3 (PC3) [%] | IC50 (human 17βHSD type 1; read-out: 17βHSD1 IC50) [µM]
CCOc1ccc(CC[C@@H]2CC(=O)[C@@]3(C)CC[C@@H]4c5ccc(O)cc5CC[C@H]4[C@H]23)cc1 [Compound 12, 15β-(4-Ethoxyphenethyl)-3-hydroxy-estra-1,3,5(10)-trien-17-one] | 85 | 88 | 80 | < 40 | > 10 | 29 | antagonists of both types of receptors | 98 | 
COc1ccc(CC[C@@H]2CC(=O)[C@@]3(C)CC[C@@H]4c5ccc(O)cc5CC[C@H]4[C@H]23)cc1 [Compound 9, 3-Hydroxy-15β-(4-methoxyphenethyl)-estra-1,3,5 (10)-trien-17-one] | 91 | 100 | 91 | < 40 | > 10 | 23.5 |  | 96 | 0.01

From patent US10759826B2, “15β-substituted estrone derivatives as selective inhibitors of 17β-hydroxysteroid-dehydrogenases, method of preparation and use thereof” (USTAV ORGANICKE CHEMIE A BIOCHEMIE AV CR, V.V.I., priority 2016, dated 2020)
